Test results reported in patent US11072585B2 (PharmAkea, Inc., priority 2015, dated 2021).

Legend:
[1] = test system: bleomycin-induced lung fibrosis in C57Bl/6 male mice; assay: Mouse oropharyngeal bleomycin model of lung fibrosis; assay type: in vivo
Protocol: Example B-3: Mouse Oropharyngeal Bleomycin Model of Lung Fibrosis
Lung fibrosis is induced in C57Bl/6 male mice by administering bleomycin (0.1-4 U/kg) via oropharyngeal instillation. Mice are either pretreated with vehicle or test compound (1 day to 1 hour) orally, intraperitoneally, intravenously or subcutaneously before bleomycin installation (prophylactic dosing) or 7-14 days post bleomycin instillation (therapeutic dosing). The route and frequency of dosing are based on previously determined pharmacokinetic properties for the LOXL2 inhibitor in mouse. After bleomycin instillation animals are monitored daily for weight loss and clinical signs for 14-28 days prior to sacrifice. Animals are euthanized at study termination and weighed and blood (for isolation of plasma) and bronchoalveolar lavage are collected and frozen for subsequent analyses. Lungs are removed, weighed, then either inflated and fixed by instillation of 10% formalin and prepared for histological examination or homogenized in 1 ml PBS for collagen determination using a hydroxyproline assay. For histological examination, lung slices are stained with Masson's trichrome or Picro-Sirius red to measure cross-linked collagen as an indicator of fibrosis and an Ashcroft score of lung fibrotic and inflammatory damage determined. In addition, immunohistochemistry of fibrotic proteins such as a-smooth muscle actin can be recorded. For lung hydroxyproline content, 0.5 ml of the lung homogenate is removed and added to 0.5 ml 12 N HCl and the samples heated at 120° C. overnight. After the acid hydrolysis, 25-100 μl of the supernatant is dried down, resuspended in 25 μl water and the hydroxyproline content determined by the addition of 0.5 ml Chloramine T solution (140 mg Chloramine T in 6.5 ml ddH2O+1 ml n-propanol+2.5 ml 1M sodium acetate) and incubation at room temperature for 20 min. After the incubation, 0.5 ml Erlich's solution (1.48 g of 4-(dimethylamino(benzaldehyde) in 7 ml n-propanol+2.88 ml 60% perchloric acid and 0.12 ml ddH2O) is added and incubated at 65° C. for 15 min before reading the absorbance at 550 nm. The concentration of hydroxyproline in each […] is determined from a hydroxyproline (purchased from Sigma) standard curve.

human LOXL2 = human LOXL2 (Homo sapiens (Human), UniProt Q9Y4K0); assay: Human LOXL2 amine oxidase activity assay (Amplex Red); assay type: biochemical; settings: concentrated conditioned media from CHO cells stably expressing human LOXL2; 2 h at 37° C. with compound; DAP substrate
human LOXL2, sequence (Q9Y4K0 26-774): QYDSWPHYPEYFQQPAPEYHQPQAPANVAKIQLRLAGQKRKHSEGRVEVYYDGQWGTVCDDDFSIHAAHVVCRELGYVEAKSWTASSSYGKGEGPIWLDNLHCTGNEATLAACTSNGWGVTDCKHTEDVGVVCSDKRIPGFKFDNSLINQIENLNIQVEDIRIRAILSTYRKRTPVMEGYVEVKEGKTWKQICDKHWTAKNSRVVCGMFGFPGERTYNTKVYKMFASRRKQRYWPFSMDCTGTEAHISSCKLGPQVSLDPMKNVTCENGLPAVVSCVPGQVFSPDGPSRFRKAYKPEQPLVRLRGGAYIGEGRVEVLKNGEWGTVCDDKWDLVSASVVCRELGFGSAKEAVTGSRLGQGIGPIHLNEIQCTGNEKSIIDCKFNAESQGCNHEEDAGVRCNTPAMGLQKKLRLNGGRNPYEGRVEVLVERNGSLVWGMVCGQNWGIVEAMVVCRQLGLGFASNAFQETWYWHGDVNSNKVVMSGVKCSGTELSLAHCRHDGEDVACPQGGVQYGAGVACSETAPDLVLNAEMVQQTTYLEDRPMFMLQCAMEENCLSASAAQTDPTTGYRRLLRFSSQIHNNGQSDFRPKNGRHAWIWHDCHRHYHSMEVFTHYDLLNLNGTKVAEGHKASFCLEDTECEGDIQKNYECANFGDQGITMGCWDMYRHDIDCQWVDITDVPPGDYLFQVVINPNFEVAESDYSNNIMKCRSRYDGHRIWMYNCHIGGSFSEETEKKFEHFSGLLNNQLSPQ
Summary of the method: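 Concentrated conditioned medium from CHO cells stably expressing human LOXL2 was preincubated with compound for 2 h at 37 °C in 50 mM borate, pH 8. 1,5-diaminopentane substrate and Amplex Red/HRP were then added. Fluorescence (544/590) was read kinetically every 2 min for 1 h, with activity taken from the linear slope.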

[2] = test system: kidney fibrosis in Col4A3 deficient mice; assay: Mouse Alport model of kidney fibrosis; assay type: in vivo; settings: dosed prophylactically at 30 mg/kg p.o.
Protocol: Example B-7: Mouse Alport Model of Kidney Fibrosis
Mice with mutations in one of the genes of glomerular basement membrane collagen, Collagen IV-a3/a4/a5, have defects in glomerular function with development of kidney fibrosis These mice develop renal dysfunction and die prematurely of renal failure with specific timing dependent on the strain background upon which the mutation is present. LOXL2 inhibitors are administered orally to Col4A3 deficient mice on a SV129 background either prophylactically (ca. weeks 2-3 of age) or therapeutically (ca. weeks 4-6 wks of age). Mice are either sacrificed at a predefined time (7-9 wks of age) or continually dosed until they lose >15% of their body weight which preceeds death by 1-3 days. If specifically terminated, mice are perfused transcardially with PBS, and one kidney clamped at the renal artery and the other perfused with Dynabeads for magnetic isolation of glomeruli. […] RNA from glomeruli and renal cortex is analyzed by real time RT-PCR for genes of interest including MMP-10, MMP-12, IL6, MCP-1, TGF-b1, CTGF, MMP-2, and MMP-9. […] Collagen 1 staining is blindly analyzed for fibrosis scoring, and fibronectin staining is blindly analyzed for glomerulosclerosis scoring. For all studies albuminuria is assessed weekly and BUN at the time of tissue harvest.

Cl.NCc1cc(Oc2cccc(C(=O)N3C[C@@H](O)[C@H](F)C3)c2)nc(C(F)(F)F)c1 (stereo in doubt) [Compound 1-21, (R,R)-trans-(3-((4-(Aminomethyl)-6-(trifluoromethyl)pyridin-2-yl)oxy)phenyl)(3-fluoro-4-hydroxypyrrolidin-1-yl)methanone hydrochloride]
efficacy in bleomycin lung fibrosis model, prophylactic dosing ([1]; dosed prophylactically at 60 mg/kg p.o.): efficacious
efficacy in bleomycin lung fibrosis model, therapeutic dosing ([1]; dosed therapeutically at 60 mg/kg p.o.): efficacious
IC50 (human LOXL2): < 300 nM
efficacy in Alport kidney fibrosis model, prophylactic dosing [2]: efficacious
